Data reported in patent US8357833B2, “Corn plants and seed enhanced for asparagine and protein” (priority 2007, dated 2013).

What was measured:
[1] = target: T1, Zea mays asparagine synthetase Zm AsnS2 (SEQ ID NO: 4, encoded by SEQ ID NO: 3) (Zea mays, UniProt B5U8J7); assay: Kinetics of recombinant his-tagged, refolded maize asparagine synthetase AsnS2 (substrate titration, asparagine by HPLC); assay type: biochemical; conditions: Zm AsnS2; 100 mM Hepes, pH 8.0, 10 mM MgCl2; read-out: Km(NH4^+)
T1 construct: 606 aa
T1 sequence (B5U8J7 1-606): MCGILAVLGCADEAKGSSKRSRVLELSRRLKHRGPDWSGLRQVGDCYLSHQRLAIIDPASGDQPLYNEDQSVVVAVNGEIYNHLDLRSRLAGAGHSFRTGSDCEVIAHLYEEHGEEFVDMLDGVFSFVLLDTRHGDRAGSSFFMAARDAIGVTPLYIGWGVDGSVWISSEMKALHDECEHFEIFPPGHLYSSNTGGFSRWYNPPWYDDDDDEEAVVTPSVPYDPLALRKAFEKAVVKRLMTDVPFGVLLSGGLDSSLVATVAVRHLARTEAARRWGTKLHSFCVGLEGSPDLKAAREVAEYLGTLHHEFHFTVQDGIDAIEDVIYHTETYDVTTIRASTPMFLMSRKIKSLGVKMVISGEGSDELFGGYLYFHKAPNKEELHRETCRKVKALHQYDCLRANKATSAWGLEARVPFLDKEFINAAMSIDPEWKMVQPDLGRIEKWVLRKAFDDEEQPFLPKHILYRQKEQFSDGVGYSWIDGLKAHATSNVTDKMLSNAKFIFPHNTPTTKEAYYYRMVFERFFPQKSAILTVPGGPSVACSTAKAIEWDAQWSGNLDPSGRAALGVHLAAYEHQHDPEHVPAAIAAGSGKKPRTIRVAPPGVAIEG
Method: The effect of expression of asparagine synthetase genes on asparagine synthetase activity was measured in transgenic events of pMON79706 and pMON92870. Frozen, ground leaf tissue was aliquoted (200-400 mg) into wells from a precooled 96 deep-well plate. Protein was extracted in Buffer A (100 mM Hepes-OH, pH 8.0, 0.1 mM EDTA, 10 mM MgCl2, 2 mM aspartate, 0.5 mM DTT, 67 mM mercaptoethanol, 20% (v/v) glycerol, 0.1 mM ATP, 1% (v/v) P9599 (Sigma Company), 25 mM KCl). A small amount of sand was added to each well. Buffer A was then added to the leaf tissue in the wells at a ratio of 4:1 (buffer:tissue). The plates were then agitated in a paint shaker for 2 min. to mix the sample and then centrifuged at 5000×g for 10 minutes. The supernatant (100-200 μL) was desalted in a 96-well macro spin plate (SNS S025L, The Nest Group Inc., Southboro, Mass.) equilibrated in buffer A. The supernatant was then either assayed immediately or frozen in liquid nitrogen and maintained at −80° C. until used. […] The mixture was then filtered to remove precipitate and asparagine was measured by HPLC. […]

[2] = target: T2, Zea mays asparagine synthetase Zm AsnS4 (SEQ ID NO: 51, encoded by SEQ ID NO: 50) (Zea mays, UniProt B5U8J9); assay: Kinetics of recombinant his-tagged, refolded maize asparagine synthetase AsnS4 (substrate titration, asparagine by HPLC); assay type: biochemical; conditions: 100 mM Hepes, pH 8.0, 10 mM MgCl2, read-out: Km(NH4^+)
T2 construct: 588 aa
T2 sequence (B5U8J9 1-588): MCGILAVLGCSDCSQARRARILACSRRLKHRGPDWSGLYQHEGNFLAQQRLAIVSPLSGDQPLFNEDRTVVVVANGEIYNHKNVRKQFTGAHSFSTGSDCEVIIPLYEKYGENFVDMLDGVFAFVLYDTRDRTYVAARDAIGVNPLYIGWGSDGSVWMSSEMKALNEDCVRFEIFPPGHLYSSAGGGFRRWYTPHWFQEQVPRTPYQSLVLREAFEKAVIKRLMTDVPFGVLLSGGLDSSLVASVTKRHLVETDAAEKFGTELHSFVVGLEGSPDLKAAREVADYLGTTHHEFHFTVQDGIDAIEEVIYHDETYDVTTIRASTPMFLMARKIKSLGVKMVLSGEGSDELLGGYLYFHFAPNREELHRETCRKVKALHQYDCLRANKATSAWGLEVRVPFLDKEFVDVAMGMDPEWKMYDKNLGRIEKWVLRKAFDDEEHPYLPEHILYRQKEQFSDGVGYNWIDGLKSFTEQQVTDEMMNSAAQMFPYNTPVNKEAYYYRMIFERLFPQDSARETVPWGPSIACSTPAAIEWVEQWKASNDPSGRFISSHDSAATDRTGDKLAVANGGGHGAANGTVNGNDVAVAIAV
Method: The effect of expression of asparagine synthetase genes on asparagine synthetase activity was measured in transgenic events of pMON79706 and pMON92870. Frozen, ground leaf tissue was aliquoted (200-400 mg) into wells from a precooled 96 deep-well plate. Protein was extracted in Buffer A (100 mM Hepes-OH, pH 8.0, 0.1 mM EDTA, 10 mM MgCl2, 2 mM aspartate, 0.5 mM DTT, 67 mM mercaptoethanol, 20% (v/v) glycerol, 0.1 mM ATP, 1% (v/v) P9599 (Sigma Company), 25 mM KCl). A small amount of sand was added to each well. Buffer A was then added to the leaf tissue in the wells at a ratio of 4:1 (buffer:tissue). The plates were then agitated in a paint shaker for 2 min. to mix the sample and then centrifuged at 5000×g for 10 minutes. The supernatant (100-200 μL) was desalted in a 96-well macro spin plate (SNS S025L, The Nest Group Inc., Southboro, Mass.) equilibrated in buffer A. The supernatant was then either assayed immediately or frozen in liquid nitrogen and maintained at −80° C. until used. To assay asparagine synthetase activity, desalted protein extracts (10-50 μL) were added to wells containing 100 μL assay solution (100 mM Hepes, pH 8.0, 10 mM MgCl2, 2 mM aspartate, 5 mM DTT, 10 mM ATP, 1 mM amino(oxy)acetic acid (aspartate amino transferase inhibitor), 1 mM aspartic semialdehyde (asparaginase inhibitor). To start the reaction, glutamine (final concentration of 2 mM for standard assay) was added to the solution, which was then mixed. The assay mixture was then incubated for 1 to 2 hours. The reaction was then stopped by the addition of an equal volume of 20% (w/v) trichloroacetic acid. The mixture was then filtered to remove precipitate and asparagine was measured by HPLC. Sample size was increased from 0.5 μL to 2.5 μL for HPLC, excitation wavelength was reduced from 340 nm to 235 nm, and fluorimeter gain was increased from 10 to 13. […]

How did the Km [1] turn out when `N` [NH4^+] was run?
Its Km is 0.75 mM.

What about the Km [2] of the same compound?
The Km was 9 mM.
